In patent US7960606B2, “Mouse model of chronic heart failure and coronary atherosclerosis regression” (The J. David Gladstone Institutes, priority 2006, dated 2011):

Key:
SR-BI knockout females = settings: administered during the breeding protocol; Miettinen et al. 2001; cited from earlier work
[1] = test system: Apoe^h/hSRB1^−/−Mx1-Cre mice; test: Survival of diet-induced heart attacks in Apoe^h/hSRB1^−/−Mx1-Cre mice after pI-pC injection and switch to low fat diet; format: in vivo
Description: The animal model was created by breeding Apoe^h/hSRB1^−/− mice to mice that carry the inducible Mx1-Cre transgene, resulting in Apoe^h/hSRB1^−/−Mx1-Cre mice that are sensitive to diet-induced coronary atherosclerosis and develop fatal myocardial infarctions within 35 days of dietary challenge. However, this new strain of mice can survive its heart attacks if switched to a normal low fat diet and given a single intrapentoneal injection of polyinosinic polycytidylic ribonucleic acid (pI-pC). […] Surviving Apoe^h/hSRB1^−/−MX1-Cre mice can then live for many months. Upon histological analysis of their heart, there is evidence of myocardial infarction and ventricular enlargement. Consequently, the surviving Apoe^h/hSRB1^−/−Mx1-Cre mice are a unique murine model of chronic heart failure that simulates chronic heart failure in humans who survive heart attacks caused by coronary atherosclerosis.
10 Apoe^h/hSRB1^−/−Mx1-Cre mice were fed a high cholesterol diet for 30 days. On day 31, they were injected with pI-pC, and then switched to a low fat diet. Of the 10 mice, 6 survived for two months. At that time point, their hearts were harvested and heart function was assessed in 4 of the 6 mice by Langendorf hemodynamic measurements.

Molecule	fertility in the SR-BI knockout females (SR-BI knockout females)	mice surviving for two months (of 10) ([1]; high cholesterol diet for 30 days, pI-pC injected on day 31, then low fat diet, 10 mice)	blood cholesterol levels ([1]; single intraperitoneal injection, activates Mx1-Cre gene, restores normal Arg-61 apoE levels in blood)
CC(C)(Sc1cc(C(C)(C)C)c(O)c(C(C)(C)C)c1)Sc1cc(C(C)(C)C)c(O)c(C(C)(C)C)c1 [probucol]	restore fertility		
polyinosinic polycytidylic ribonucleic acid [pI-pC]		6	rapidly and permanently lowers blood cholesterol levels in a few days
